Assay results taken from US8748497B2, “Optimized fluorocarbon emulsions for blood substitutes and other therapeutic uses” (Alliance Pharmaceutical Corp., priority 2006, dated 2014).
Where two headings read alike, the source gives them in different places.

What was measured:
[1] = pharmacokinetics in blood after single intravenous administration of the emulsion of Ex. VI; type: in vivo, Sprague Dawley rats; conditions: for MRT last / half-life: Sprague-Dawley, rat; for MRT last: read-out: MRT(0-last); for Vd: terminal phase; for half-life: iv, read-out: T1/2 (converted)
Source text: (§1) This study was designed to assess the pharmokinetics and tissue distribution of PFOB and PFDB following a single intravenous administration of the emulsion of Ex. VI at various time intervals at dose levels of 1.8 and 3.6 g PFC/k in male and female Sprague Daley rats, aged 7-9 weeks, weight between 190-267 grams. For pharmacokinetics, 160 rats were divided into 20 groups (N=4 rats/sex/dose/time interval) and for tissue distribution, 156 rats were divided into 26 groups (n=3 rats/sex/dose/time interval). The time intervals for pharmacokinetics blood sampling were 0.083, 0.5, 1, 3, 6, 12, 36, 48, 72 and 96 hours. The time intervals for tissue sampling was predose, 24 hours, 1, 2, 4, 8, 13, 17, 21, 26, 39, 52 and 72 weeks.
Six pharmacokinetic parameters were determined following a single intravenous dose of 1.8 gPFC/kg or 3.6 g PFC/kg in both the male and female rats as shown in the tables below.

[2] = tissue distribution after single intravenous administration of the emulsion of Ex. VI, GC headspace; type: in vivo, Sprague Dawley rats
Source text: as §1
26 groups (N=3 rats/sex/group). Prior to euthanasia, body weights were recorded. At designated times (see below), rats were anesthetized with METOFANE® and esanguinated via the abdominal artery. Blood was collected into syringes containing EDTA and transferred into sealed plastic containers for storage at approximately −20° C. until analyzed. Resultant data were included in the determination of pharmacokinetic parameters. The following tissues were collected from each rat and placed in sealed containers and stored frozen at −20° C. Prior to freezing, blood and tissue samples were processed for analysis. PFOB and PFDB were quantified in blood and tissues using a GC headspace method validated by Oread. The method was validated in the liver and then cross validated to all other tissues, blood, and serum. The tissues collected and analyzed include heart, lungs, abdominal fat, spleen, liver, mesenteric lymph nodes, kidneys, adrenals, testes, ovaries, uterus, whole brain, eyes, skeletal muscle, femoral bone marrow, and gastrointestinal tract.
The concentration of PFOB and PFDB was determined in the tissues in both sexes at 12 time points. For the males, this was a total of 360 individual results including blood. There were 24 additional results for the female.

[3] = Phase 1 pharmacokinetics in healthy human volunteers; type: in vivo; conditions: for AUC(0-t) / half-life / Cmax: human, blood; for AUC(0-t) / half-life: intravenous; for AUC(0-t): read-out: AUC (0-336); for half-life: read-out: t1/2. 12 h (initial elimination half-life within the first 12 h post dose) (converted); for Cmax: iv, healthy volunteers
Procedure: Two randomised, controlled, double-blind, parallel group, Phase 1 studies were conducted in healthy human patients with the fluorocarbon emulsion made according to Example VI. Blood and expired air samples were analysed for PFOB and PFDB after a single intravenous dose of 1.2 or 1.8 g PFC/kg of the fluorocarbon emulsion of Example VI in healthy human volunteers to determine pharmacokinetics. Blood samples were collected up to 336 hours post-dosing.

[4] = pharmacokinetics in subjects undergoing noncardiac surgical procedures; type: in vivo, human; conditions: human, whole blood, noncardiac surgery; for clearance: read-out: CL (whole blood clearance) (converted); for Cmax: read-out: Cmax (maximum whole blood concentration); for half-life: read-out: T1/2 (elimination half-life) (converted)
Procedure: The pharmacokinetics of PFOB and PFDB were determined after the administration of the fluorocarbon emulsion of Example VI to subjects undergoing total hip replacement or spinal surgery or a variety of urologic and gynaecologic procedures including radical retropubic prostatectomy, radical hysterectomy, cystectomy and combined procedures. Human subjects in one study received either 0.9 g PFC/kg or 1.8 g PFC/kg of the fluorocarbon formulation of Example VI and those in a second study received 1.8 g PFC/kg of the fluorocarbon formulation of Example VI.

[5] = pharmacokinetics in subjects undergoing CABG surgery with hypothermic CPB; type: in vivo, human; conditions: human, whole blood, other: directly into the bypass oxygenator, 2.7 g PFC/kg
Procedure: The pharmacokinetics of PFOB and PFDB were determined after the administration of the fluorocarbon formulation taught in Example VI to human subjects undergoing coronary artery bypass grafting or CABG surgery with hypothermic cardiopulmonary bypass. In group 1 and in group 2, human subjects received the fluorocarbon emulsion (2.7 g PFC/kg) as taught in Example VI directly into the bypass oxygenator after being put on bypass but before cooling was begun. In group 4, subjects received 2.7 g PFC/kg of the fluorocarbon emulsion of Example VI directly into the bypass oxygenator either prior to aortic cannulation or after being put on bypass, but before cooling was begun.

[6] = in vivo; cited from earlier work
[7] = female rats, 1.8 g PFC/kg single iv, blood
[8] = female rats, 3.6 g PFC/kg single iv, blood
[9] = male rats, 1.8 g PFC/kg single iv, blood
[10] = male rats, 3.6 g PFC/kg single iv, blood
[11] = female rats, 1.8 g PFC/kg, 24 hours
[12] = female rats, 3.6 g PFC/kg, 24 hours
[13] = male rats, 1.8 g PFC/kg, 24 hours
[14] = 1.2 g PFC/kg, Table VII, 1.2 g PFC/kg
[15] = 1.2 g PFC/kg, Table VIII, 1.2 g PFC/kg
[16] = 1.8 g PFC/kg, Table VII, 1.8 g PFC/kg
[17] = 1.8 g PFC/kg, Table VIII, 1.8 g PFC/kg

## FC(F)(F)C(F)(F)C(F)(F)C(F)(F)C(F)(F)C(F)(F)C(F)(F)C(F)(F)C(F)(F)C(F)(F)Br [PFDB, perfluorodecyl bromide]
[1]; 1.8 g/kg, female rats, 1.8 g PFC/kg single iv, blood
  MRT last: 113 h
[1]; 1.8 g/kg, male rats, 1.8 g PFC/kg single iv, blood
  MRT last: 332 h
[1]; 3.6 g/kg, female rats, 3.6 g PFC/kg single iv, blood
  MRT last: 438 h
[1]; 3.6 g/kg, male rats, 3.6 g PFC/kg single iv, blood
  MRT last: 485 h
[1]; [7]
  AUC(o-last): 6.86 mg·h/g
  AUC(o-∞): 7.54 mg·h/g
  Cl: 238.76 g/h/kg
[1]; female rats, 1.8 g PFC/kg single iv, blood, last 3 or 4 data points
  T1/2: 199.851 days
[1]; female rats, 1.8 g PFC/kg single iv
  Vd: 1652163 g/kg
[1]; [8]
  AUC(o-last): 21.99 mg·h/g
  AUC(o-∞): 22.87 mg·h/g
  Cl: 157.39 g/h/kg
[1]; female rats, 3.6 g PFC/kg single iv
  Vd: 1728719 g/kg
[1]; female, blood, 1.8 g/kg, female rats, 1.8 g PFC/kg single iv, blood, last 3 or 4 data points
  half-life: ~200 days
[1]; female, blood, 3.6 g/kg, female rats, 3.6 g PFC/kg single iv, blood, last 3 or 4 data points
  half-life: ~317 days
[1]; [9]
  AUC(o-last): 6.88 mg·h/g
  AUC(o-∞): 10.65 mg·h/g
  Cl: 169.05 g/h/kg
[1]; male rats, 1.8 g PFC/kg single iv
  Vd: 6128576 g/kg
[1]; [10]
  AUC(o-last): 24.67 mg·h/g
  AUC(o-∞): 27.62 mg·h/g
  Cl: 130.34 g/h/kg
[1]; male rats, 3.6 g PFC/kg single iv
  Vd: 2359442 g/kg
[1]; male, blood, 1.8 g/kg, male rats, 1.8 g PFC/kg single iv, blood, last 3 or 4 data points
  half-life: ~1050 days
[1]; male, blood, 3.6 g/kg, male rats, 3.6 g PFC/kg single iv, blood, last 3 or 4 data points
  half-life: ~523 days
[2]; 24 hours, males 1.8 g PFC/kg
  concentration in the spleen and liver: above 1 mg/g
[2]; Sprague-Dawley, rat, intravenous, 24 hr, all tissues, both sexes and both doses, read-out: absolute concentration in tissues
  concentration at 24 h: > 1000 ng/g
[2]; [11]
  percent of dose in liver: ~86%
  percent of dose in spleen: approximately 14%
[2]; [12]
  percent of dose in liver: approximately 62%
  percent of dose in spleen: approximately 8%
[2]; females 3.6 g PFC/kg
  concentration in the lymph nodes, spleen, liver and bone marrow: above 1 mg/g
[2]; [13]
  percent of dose in liver: ~85%
  percent of dose in spleen: approximately 15%
[2]; male rats, 3.6 g PFC/kg
  percent of dose in spleen: approximately 11%
[2]; male rats, 3.6 g PFC/kg, 24 hours
  percent of dose in liver: ~69%
[2]; males 3.6 PFC/kg
  concentration in the spleen, liver, and bone marrow: above 1 mg/g
[3]; Table VIII, 1.2 g PFC/kg
  t1/2. 12 h (initial elimination half-life within the first 12 h post dose): 13.6 h
[3]; [14]
  AUC(0-t): 6640 µg·h/mL
  half-life: 13.7 ± 3.6 h
[3]; [15]
  AUC(0-t): 4630 µg·h/mL
  half-life: 7.35 h
[3]; [16]
  AUC(0-t): 16300 µg·h/mL
  half-life: 18.7 h
[3]; [17]
  AUC(0-t): 11200 µg·h/mL
  half-life: 12.6 h
[3]; 1.2 g PFC/kg, Table VII, 1.2 g PFC/kg single iv
  Cmax: 540 ± 125 µg/mL
[3]; 1.2 g PFC/kg, Table VIII, 1.2 g PFC/kg single iv
  Cmax: 670 ± 420 µg/mL
[3]; 1.8 g PFC/kg, Table VII, 1.8 g PFC/kg single iv
  Cmax: 978 ± 499 µg/mL
[3]; 1.8 g PFC/kg, Table VIII, 1.8 g PFC/kg single iv
  Cmax: 884 ± 196 µg/mL
[4]; 0.9 g PFC/kg
  AUC(0-inf): 736 ± 483 µg·h/mL
  clearance: 0.973 mL/min/kg
  Cmax: 284 ± 92.7 µg/mL
  half-life: 2.73 ± 1.32 h
[4]; 1.8 g PFC/kg
  AUC(0-inf): 2950 µg·h/mL
  clearance: 0.595 mL/min/kg
  Cmax: 620 ± 158 µg/mL
  half-life: 5.56 ± 4.81 h
[5]
  AUC(0-inf): 16200 µg·h/mL
[5]; read-out: CL (whole blood clearance) (converted)
  clearance: 0.113 mL/min/kg
[5]; read-out: Cmax (maximum whole blood concentration)
  Cmax: 1030 µg/mL
[5]; read-out: T1/2 (elimination half-life) (converted)
  half-life: 10.8 ± 4.46 h
[6]
  half-life in the RES: 552 h
